Test in all cases: NCI anticancer screen, dose series, 48 h
Assay [1] has as its system MDA-MB-435.
Assay [2] has as its system MDA-MB-231.
The test system of assay [3] is NCI/ADR-RES.
Assay [4] relates to CAKI-1.
For assay [5], the system named is SR.
Assay [6] relates to HL-60.
Assay [7] deals with NCI-H460.
For assay [8], the system named is M14.
Assay [9] has as its system HCT-15.
Assay [10] concerns MCF7.
Assay [11] concerns SF-539.
Assay [12] deals with SK-OV-3.
Assay [13] deals with SNB-78.
In assay [14] the test system is DMS-114.
Assay [15] relates to SF-268.
Assay [16] relates to M19-MEL.
Assay [17] deals with IGROV-1.
In assay [18] the test system is SW-620.
For assay [19], the system named is NCI-H226.
For assay [20], the system named is T47D.

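How tested: cells in 96-well plates exposed to compound for 48 hours at five concentrations. At the GI50, growth is halved.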 Calls of active or inactive are those of the source. Cut-off read from the data, not from the text of the source: active = GI50 up to about 1.1 µM and inactive = higher. Bounds are passed on as bounds.

Consider `O=c1[nH]nc(NCc2ccccc2)c2nnn(Cc3ccccc3)c12`, for which the GI50 in assay [1], in [2], in [3], in [4], in assay [5] and in assay [6] was > 100 µM (inactive) throughout. The GI50 in [7] was > 100 µM (inactive); in [8], > 100 µM (inactive); in assay [9], above 100 µM; in [10], > 100 µM (inactive).

In the case of `O=C1NC(=O)C2(CCc3ccc(N(CCCl)CCCl)cc32)N1` (configuration not stated), the GI50 in assay [11] is 5.27 µM (inactive); in assay [12] it was 16.1 µM (inactive); in [3], 9.77 µM (inactive); in assay [4], 3.56 µM (inactive); in assay [13], 22 µM (inactive); in [14], 10.9 µM (inactive). Further, the GI50 in assay [15] is 7.36 µM (inactive); in [6], 1.65 µM (inactive); in [16] it was 14.1 µM (inactive); in assay [17], 15.9 µM (inactive); in [7] it was 3.98 µM (inactive); in assay [18], 18.2 µM (inactive). The GI50 was 2.08 µM (inactive) in assay [19], 15.1 µM in [9] and 10.1 µM (inactive) in assay [10].

As to `CC(SC1=CC(=O)c2c(Cl)ccc(O)c2C1=O)C(=O)O` (configuration not stated), the GI50 in assay [11] was 18.3 µM (inactive); in assay [13], 12.6 µM (inactive); in assay [14], 18.2 µM (inactive); in assay [5], 6.56 µM (inactive); in assay [15], 20.2 µM (inactive); in assay [6], 2.79 µM (inactive). Besides, the GI50 in assay [17] was 17.3 µM (inactive); in assay [7], 26.6 µM (inactive); in assay [18], 19.4 µM (inactive); in [19], 43.3 µM (inactive); in assay [9], 17.1 µM.

For the molecule `NC(CCOCCP(=O)(O)O)C(=O)O` (configuration not stated), the GI50 in assay [1], in assay [11], in [2], in assay [12], in [3] and in [4] was > 100 µM (inactive) in each case. Further, the GI50 in [5] is > 100 µM (inactive); in [15], > 100 µM (inactive); in assay [6], > 100 µM (inactive); in assay [20], 57.7 µM (inactive); in assay [17], > 100 µM (inactive); in assay [7], > 100 µM (inactive). Also, the GI50 in assay [8] was > 100 µM (inactive); in assay [18], > 100 µM (inactive); in assay [9], above 100 µM; in [10], > 100 µM (inactive).

For the molecule `Cc1n[nH]c(N)c1C(N)=O`, the GI50 in [11], in assay [12], in assay [4], in assay [13], in [14] and in assay [15] was > 100 µM (inactive) each time. Moreover, the GI50 in assay [6] is > 100 µM (inactive); in [17], > 100 µM (inactive); in [8] it was > 100 µM (inactive); in [18], > 100 µM (inactive); in [9], above 100 µM.

For the molecule `CC1C(=O)OC2CC[N+]3(CC(=O)c4ccc(Br)cc4)CC=C(COC(=O)C(C)(O)C1(C)O)C23` (configuration not stated), the GI50 in assay [11] was > 375 µM (inactive); in [12] it was > 375 µM (inactive); in assay [3], > 375 µM (inactive); in assay [4], > 375 µM (inactive); in assay [13], 211 µM (inactive); in assay [14], > 375 µM (inactive). Besides, the GI50 in assay [15] was > 375 µM (inactive); in [6], 361 µM (inactive); in assay [16], > 375 µM (inactive); in assay [17] it was > 375 µM (inactive); in assay [7], > 375 µM (inactive); in assay [18], > 375 µM (inactive). For the same molecule, the results for the GI50 in [19], in assay [9] and in assay [10] were > 375 µM (inactive), above 375 µM and > 375 µM (inactive), respectively.

As for `CC1C(O)[C@@]2(OC[C@@]34C(=O)CC5(O)[C@H](CCC6Cc7nc8c(nc7C[C@]65C)CC5CC[C@@H]6C7=C[C@H]9O[C@@]%10(O[C@@](C)(CO)C[C@@H]%10O)C(C)[C@@]9(O)[C@]7(C)[C@@H](O)CC6[C@]5(C)C8)C3=CC[C@H]4C2C)OC1(C)C` (some centres not stated), the GI50 in [11] was < 0.000355 µM (active); in assay [12], 0.00226 µM (active); in [3] it was > 3.55 µM (inactive); in [4], 0.0119 µM (active); in assay [13], 0.00146 µM (active); in assay [14], < 0.000355 µM (active). Further, the GI50 in [15] is 0.000659 µM (active); in assay [6], < 0.000355 µM (active); in [16], 0.442 µM (active); in [17] it was 0.00262 µM (active); in assay [7], < 0.000355 µM (active); in [18] it was 0.000385 µM (active). In addition, the GI50 is > 3.55 µM (inactive) in [19], 0.00667 µM in assay [9] and < 0.000355 µM (active) in [10].

As to `Nc1nc(=O)[nH][nH]1`, the GI50 in [11], in assay [12], in assay [3], in assay [4], in assay [13] and in [14] was > 100 µM (inactive) throughout. Further, the GI50 in [15], in [6], in [16], in assay [17], in assay [7] and in [18] was > 100 µM (inactive) throughout. In addition, the GI50 in assay [19] was > 100 µM (inactive); in assay [9], above 100 µM; in assay [10], > 100 µM (inactive).

In the case of `C[Si](C)(OCCS(=O)(=O)O)C1(Cc2cccc3ccccc23)S(=O)(=O)OCCOS1(=O)=O`, the GI50 was 18.6 µM (inactive) in assay [1]; 18.6 µM (inactive) in assay [11]; 18.1 µM (inactive) in [2]; 15.6 µM (inactive) in assay [12]; 33.7 µM (inactive) in assay [3]; 17.5 µM (inactive) in [4]. Besides, the GI50 in [15] is 23.2 µM (inactive); in assay [6] it was 8.26 µM (inactive); in assay [20] it was 17.1 µM (inactive); in [17], 16.9 µM (inactive); in [7], 21.1 µM (inactive); in assay [8] it was 17.7 µM (inactive). For the same molecule, the GI50 was 16.3 µM (inactive) in assay [18], 19.5 µM (inactive) in assay [19], 19.6 µM in assay [9] and 19.4 µM (inactive) in assay [10].

In the case of `OC[C@H]1NC[C@@H](O)[C@@H](O)[C@H]1O`, the GI50 in assay [1], in assay [2], in assay [12], in [3], in assay [4] and in [5] was > 100 µM (inactive) each time. For the same molecule, the GI50 in assay [20], in [17], in [7], in assay [8], in assay [18] and in [19] was > 100 µM (inactive) throughout. The GI50 was above 100 µM in assay [9] and > 100 µM (inactive) in assay [10].

As for `N=S(=O)(c1ccccc1)c1ccccc1`, the GI50 in assay [11], in assay [12], in assay [4], in [13], in assay [14] and in [5] was > 100 µM (inactive) in each case. The GI50 in assay [15], in [6], in assay [16], in assay [17], in assay [7] and in assay [8] was > 100 µM (inactive) each time. Also, the GI50 in assay [18] and in [19] was > 100 µM (inactive) in each case.

As to `COc1ccc(C2C(C(=O)O)=C(CO)Oc3cc4c(cc32)OCO4)cc1` (configuration not stated), the GI50 in [12], in assay [4], in assay [13], in assay [14], in [16] and in [17] was > 100 µM (inactive) throughout. Also, the GI50 was > 100 µM (inactive) in [7], > 100 µM (inactive) in [8], > 100 µM (inactive) in [18] and above 100 µM in assay [9].

The record behind these values is ChEMBL document CHEMBL1201862, “PubChem BioAssay data set” (2004).
